Drawing on PMC11876601 (Molecular Systems Biology, 2025), this text covers EC50 for 13 compounds.

Each structure is given as a SMILES string.

Holding throughout (assay): cells
Holding throughout (parameters): Viability of PDAC cell lines, ATPlite luminescence, 11-dose single-agent curve fit
Background: Cellular ATP, detected with luciferase, serves as a proxy for viable cell number.

Assay [1] relates to HuP-T4. The following applies: Homo sapiens, HuP-T4, 72 h, read-out: EC50 [nM]. Summed up: (§1)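 screening used cells plated at 1000 to 5000 per well one day before treatment. Final DMSO was 0.2%. Each plate held untreated negative-control wells and 5 µM staurosporine positive-control wells.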
Assay [2] concerns Suit2-07. The following applies: 72 h, read-out: EC50 [nM]. Summed up:
as §1

In assay [3] the test system is PSN-1. Conditions: Homo sapiens, PSN1, 72 h, read-out: EC50 [nM]. Summed up:
as §1

Assay [4] has as its system BxPC-3. Conditions: Homo sapiens, BXPC-3, 72 h, read-out: EC50 [nM]. A digest of the protocol: as §1
Assay [5] concerns AsPC-1. Conditions: Homo sapiens, ASPC1, 72 h, read-out: EC50 [nM]. A digest of the protocol:
as §1

The subject of assay [6] is MiaPaCa-2. The following applies: Homo sapiens, MIA PaCa-2, 72 h, read-out: EC50 [nM]. Summed up: as §1
In assay [7] the test system is PANC-1. The following applies: Homo sapiens, PANC-1, 72 h, read-out: EC50 [nM]. Summed up:
as §1

Assay [8] concerns Capan-1. The following applies: Homo sapiens, CAPAN-1, 72 h, read-out: EC50 [nM]. A digest of the protocol: as §1
The subject of assay [9] is HPDE. The following applies: HPDE, 72 h, read-out: EC50 [nM]. Summed up:
as §1

The subject of assay [10] is Colo-357. The following applies: Homo sapiens, COLO357, 72 h, read-out: EC50 [nM]. Summed up: as §1
Assay [11] has as its system FAMPAC. Conditions: 72 h, read-out: EC50 [nM]. A digest of the protocol:
as §1

The subject of assay [12] is PaTu-8988-T. The following applies: Homo sapiens, PaTu 8988t, 72 h, read-out: EC50 [nM]. A digest of the protocol:
as §1

Assay [13] relates to Dan-G. The following applies: 72 h, read-out: EC50 [nM]. Summed up:
as §1

One may read the EC50 as the concentration at which the effect is half-maximal. Take `CC(C)Oc1ccc(-c2nn([C@@H](C)c3oc4ccc(F)cc4c(=O)c3-c3cccc(F)c3)c3ncnc(N)c23)cc1F` [Umbralisib]: the half-maximal effective concentration (EC50) in assay [1] is 1370 nM; in assay [2], 1310 nM; in [3] it was 62.6 nM; in assay [4], 683 nM; in [5], 26.5 nM; in assay [6], > 10000 nM. Besides, the EC50 in assay [7] is 655 nM; in assay [8], 39.7 nM; in [9], 6540 nM; in assay [10] it was 0.12 nM; in assay [11], 8790 nM; in assay [12], 4550 nM. For the same compound, in [13], the EC50 turned out to be 441 nM.

As to `CCC(=O)N1CC[C@H](Nc2ncnc3c2CN(c2cnc(OC)c(C(F)(F)F)c2)CC3)C1` [Leniolisib], the EC50 was 733 nM in [1]; 4720 nM in assay [2]; 8970 nM in [3]; 2210 nM in assay [4]; 2110 nM in assay [5]; > 10000 nM in [6]. Moreover, the concentration giving a half-maximal response (EC50) in assay [7] is > 10000 nM; in assay [8], 4340 nM; in assay [9], 6030 nM; in assay [10], 3830 nM; in [11], 2610 nM; in assay [12], 9180 nM. For the same compound, the EC50 in assay [13] was found to be 6460 nM.

`Cn1cc(-c2cc3c(N4CCN(c5ncc([C@@](C)(N)c6ccc(F)cc6)cn5)CC4)ncnn3c2)cn1` [Avapritinib]: the EC50 came out at 701 nM in assay [1]; 3550 nM in assay [2]; 1010 nM in assay [3]; 3240 nM in assay [4]; 1990 nM in assay [5]; 1710 nM in [6]. Moreover, the EC50 in assay [7] was 2600 nM; in assay [8], 3830 nM; in [9], 976 nM; in assay [10] it was 420 nM; in assay [11], 2070 nM; in [12], 1570 nM. The concentration for a half-maximal effect (EC50) in assay [13] was determined as 3820 nM.

Regarding `CC#CC(=O)N1CCC[C@H]1c1nc(-c2ccc(C(=O)Nc3ccccn3)cc2)c2c(N)nccn12` [Acalabrutinib], the concentration for a half-maximal effect (EC50) in assay [1] worked out at 632 nM; in [2], 13.1 nM; in assay [3], 4470 nM; in assay [4] it was 756 nM; in assay [5], 1.48 nM; in [6], 718 nM. The EC50 in [7] is 365 nM; in [8], 3020 nM; in [9] it was 703 nM; in assay [10] it was 2640 nM; in [11], > 10000 nM; in assay [12], 1590 nM. Further, the EC50 in [13] was 553 nM.

For the compound `Cc1cn(-c2cc(NC(=O)c3ccc(C)c(Nc4nccc(-c5cccnc5)n4)c3)cc(C(F)(F)F)c2)cn1` [Nilotinib], the EC50 in [1] is 22.2 nM; in assay [2], 186 nM; in assay [3] it was > 10000 nM; in [4], 3610 nM; in assay [5], > 10000 nM; in assay [6], 3700 nM. Moreover, the EC50 in [7] was 3790 nM; in assay [8] it was > 10000 nM; in [9], > 10000 nM; in assay [10] it was > 10000 nM; in assay [11] it was > 10000 nM; in assay [12], 5190 nM. The EC50 in assay [13] was > 10000 nM.

As for `CNC(=O)c1c(C)oc2cc(Oc3ncnc4cc(OC)c(OC)cc34)ccc12` [Fruquintinib], the EC50 in assay [1] was found to be 653 nM; in [2], 0.05 nM; in assay [3], 5.57 nM; in assay [4] it was 0.01 nM; in assay [5] it was 596 nM; in [6] it was 2740 nM. Further, the EC50 was found to be 20.4 nM in assay [7]; 32.9 nM in assay [8]; 552 nM in assay [9]; 5.08 nM in [10]; 1660 nM in [11]; 1810 nM in assay [12]. For the same compound, the half-maximal effective concentration (EC50) in [13] worked out at 1.05 nM.

On to `CO[C@H]1C[C@@H]2CC[C@@H](C)[C@@](O)(O2)C(=O)C(=O)N2CCCC[C@H]2C(=O)O[C@H]([C@H](C)C[C@@H]2CC[C@@H](OCCO)[C@H](OC)C2)CC(=O)[C@H](C)/C=C(\C)[C@@H](O)[C@@H](OC)C(=O)[C@H](C)C[C@H](C)/C=C/C=C/C=C/1C` [Certican], for which the EC50 in [1] was 2.46 nM; in assay [2], 2610 nM; in [3] it was 0.05 nM; in assay [4], 0.09 nM; in assay [5] it was 0.14 nM; in [6], 1.84 nM. For the same compound, the EC50 in [7] stood at 171 nM; in [8], 3520 nM; in assay [9], 0.16 nM; in assay [10] it was 238 nM; in assay [11], 5.43 nM; in assay [12], 0.1 nM. In assay [13], the half-maximal effective concentration (EC50) was determined as 0.21 nM.

Take `CC1(C)CNc2cc(NC(=O)c3cccnc3NCc3ccncc3)ccc21` [Motesanib]: the half-maximal effective concentration (EC50) was 515 nM in [1]; 942 nM in [2]; 2550 nM in assay [3]; > 10000 nM in assay [4]; 9400 nM in assay [5]; 7350 nM in [6]. Besides, the concentration giving a half-maximal response (EC50) in assay [7] was > 10000 nM; in assay [8], 9170 nM; in [9] it was 8730 nM; in [10], 3910 nM; in [11], > 10000 nM; in assay [12], 455 nM. For the same compound, the EC50 in assay [13] was > 10000 nM.

As to `CCCS(=O)(=O)N[C@H]1C[C@@H](N(C)c2ncnc3[nH]ccc23)C1` [Abrocitinib], the concentration for a half-maximal effect (EC50) in assay [1] is 643 nM; in assay [2] it was 901 nM; in assay [3] it was > 10000 nM; in assay [4] it was 275 nM; in [5] it was 3850 nM; in assay [6] it was 2760 nM. For the same compound, the EC50 in [7] is 140 nM; in assay [8], 37.4 nM; in assay [9] it was 5620 nM; in assay [10], 9870 nM; in [11], 2.68 nM; in assay [12] it was 3800 nM. Also, the EC50 in [13] is > 10000 nM.

As for `N#CCC1(n2cc(-c3ncnc4[nH]ccc34)cn2)CN(C2CCN(C(=O)c3ccnc(C(F)(F)F)c3F)CC2)C1` [Itacitinib], the EC50 in assay [1] came out at 316 nM; in [2] it was 72.1 nM; in assay [3] it was 124 nM; in assay [4], 52.1 nM; in assay [5], 17.1 nM; in assay [6] it was 770 nM. The EC50 in assay [7] is 21.2 nM; in assay [8] it was 142 nM; in [9] it was 873 nM; in [10] it was 75 nM; in [11], 1420 nM; in assay [12] it was 292 nM. The concentration giving a half-maximal response (EC50) in assay [13] is 3820 nM.

Regarding `Cc1ccc(Nc2nccc(N(C)c3ccc4c(C)n(C)nc4c3)n2)cc1S(N)(=O)=O` [Pazopanib], the EC50 in [1] is 135 nM; in [2], > 10000 nM; in [3], 8400 nM; in assay [4], > 10000 nM; in assay [5], > 10000 nM; in [6], 3820 nM. Further, the concentration giving a half-maximal response (EC50) was 913 nM in assay [7]; > 10000 nM in [8]; 2410 nM in [9]; > 10000 nM in [10]; 5020 nM in assay [11]; 35.4 nM in assay [12]. Also, in [13], the EC50 is 4120 nM.

Take `N#CC[C@H](C1CCCC1)n1cc(-c2ncnc3[nH]ccc23)cn1` [Ruxolitinib]: the EC50 amounted to 212 nM in assay [1]; 1750 nM in [2]; 2210 nM in assay [3]; 6970 nM in assay [4]; 23.6 nM in [5]; 1740 nM in [6]. Also, the EC50 in assay [7] was 1370 nM; in [8] it was 0.51 nM; in assay [9], > 10000 nM; in assay [10] it was 8280 nM; in assay [11], 9910 nM; in assay [12] it was 13.4 nM. Further, the EC50 in [13] came out at 117 nM.

For `CONC(=O)c1ccccc1Nc1cc(Nc2cc(C)nn2C(C)C)ncc1Cl` [GSK2256098], the 50% effective concentration (EC50) in assay [1] amounted to 4790 nM; in [2], 6450 nM; in [3] it was 5120 nM; in [4], 1670 nM; in assay [5] it was 292 nM; in [6], 2520 nM. Also, the EC50 in [7] is 804 nM; in [8], 1650 nM; in assay [9] it was 156 nM; in assay [10], 515 nM; in assay [11] it was 3020 nM; in assay [12], 858 nM. Further, in assay [13], the EC50 turned out to be 3730 nM.
